According to patent publication US12643876B2, “Deuterated hpki kinase inhibitor, and preparation method therefor and use thereof” (ZHUHAI YUFAN BIOTECHNOLOGIES CO., LTD, priority 2020, dated 2026):

What was measured:
[1] = microsome metabolite identification / stability, rat liver microsomes; assay type: in vitro ADME; settings: 37° C.
Protocol: (§1) The operation steps for microsome metabolite identification were as follows:
(§2) For the sample with T=60 min, 4 μL of the test sample working solution (1.0 mM), 316 μL of the liver microsome working solution (1.27 mg/mL) and 80 μL of the reduced coenzyme working solution were added sequentially to start the reaction; for the sample with T=0 min, 316 μL of the liver microsome working solution (1.27 mg/mL) was added, and 80 μL of the reduced coenzyme working solution was added to start the reaction, with no test sample incubation; after incubation at 37° C. for 60 min, 1200 μL of stop buffer was added to stop the enzymatic reaction; and for the sample with T=0 min, 4 μL of the test sample working solution (1.0 mM) was added. The sample plate was placed on a vortexer and vortexed at 600 rpm for 5 min. The mixture was centrifuged at 4000 rpm for 10 min, and the supernatant was removed, mixed and purged with nitrogen to dryness at room temperature. The resulting solution was re-dissolved with 300 μL of 10% acetonitrile (0.1% FA), the […] centrifuged at 4000 rpm for 15 min, and the supernatant was transferred to a detection plate for mass spectrometry. Mass spectrometry was performed using an LC/Q-Exactive plus. 7-ethoxycoumarin (10 μM) was selected as a positive control compound, using the procedure same as that of the compounds.

[2] = microsome metabolite identification / stability, mouse liver microsomes; assay type: in vitro ADME; settings: 37° C.
Protocol: as §1, §2

[3] = microsome metabolite identification / stability, cynomolgus monkey liver microsomes; assay type: in vitro ADME; settings: 37° C.
Protocol: as §1, §2

[4] = microsome metabolite identification / stability, human liver microsomes; assay type: in vitro ADME; settings: 37° C.
Protocol: as §1, §2

[5] = microsome metabolite identification / stability, beagle liver microsomes; assay type: in vitro ADME; settings: 37° C.
Protocol: as §1, §2

[6] = Free base crystalline form B nitrogen purging (XRPD); assay type: physicochemical; settings: nitrogen purging at 30° C. for 20 minutes
[7] = Free base crystalline form B standing at room temperature (XRPD); assay type: physicochemical; settings: closed space, 5 days
Excerpt: The XRPD patterns of free base crystalline form B of compound A2 before and after standing at room temperature are shown in FIG. 9.

[8] = Solid state stability of free base crystalline form A (HPLC); assay type: physicochemical; settings: 60° C./1 day, closed space
Protocol: Solid State Stability of Free Base Crystalline Form A
The XRPD patterns of an initial sample of the free base crystalline form A described above and the free base crystalline form A after 1 day of standing in a closed space at 60° C. are shown in FIG. 5, and the HPLC results are shown in Table 5.

remaining percentage of the parent nucleus after 60 min [1] [%]	remaining percentage of the parent nucleus after 60 min [2] [%]	remaining percentage of the parent nucleus after 60 min [3] [%]	remaining percentage of the parent nucleus after 60 min [4] [%]	remaining percentage of the parent nucleus after 60 min [5] [%]	crystalline form stability (XRPD) [6]	HPLC Area (%) of peak 4 (RRT 1.06) ([8]; initial sample 0.10) [%]	HPLC Area (%) of peak 3 (RRT 1.05) ([8]; initial sample 0.22) [%]	HPLC Area (%) of peak 1 (RRT 0.95) ([8]; initial sample 0.42) [%]	HPLC Area (%) of peak 2 (RRT 1.00, main peak) ([8]; initial sample 99.26) [%]	SMILES	crystalline form stability (XRPD) [7]
52.1	55.0	29.6	83.9	7.0						[2H]C([2H])([2H])N1CCC(n2cc(-c3cnc(N)c(OCc4cccc(C#CC(C)(C)O)c4)c3)cn2)CC1 [Compound A2, 4-(3-(((2-amino-S-(1-(1-trideuteromethylpiperidin-4-yl)-1H-pyrazol-4-yl)pyridin-3-yl)oxy)methyl)phenyl)-2-methylbut-3-yn-2-ol]	
43.9	42.8	23.4	70.4	8.9						[2H]C([2H])([2H])N1CCC(c2ncc(-c3cnc(N)c(OCc4cccc(C#CC(C)(C)O)c4)c3)s2)CC1 [Compound B2]	
11.21	1.24	9.11	51.82	0.12						CN1CCC(c2ncc(-c3cnc(N)c(OCc4cccc(C#CC(C)(C)O)c4)c3)s2)CC1 [Compound B1, reference compound]	

Further lines, the compound ahead of its results:

SMILES	remaining percentage of the parent nucleus after 60 min [1] [%]	remaining percentage of the parent nucleus after 60 min [2] [%]	remaining percentage of the parent nucleus after 60 min [3] [%]	remaining percentage of the parent nucleus after 60 min [4] [%]	remaining percentage of the parent nucleus after 60 min [5] [%]	crystalline form stability (XRPD) [6]	HPLC Area (%) of peak 4 (RRT 1.06) ([8]; initial sample 0.10) [%]	HPLC Area (%) of peak 3 (RRT 1.05) ([8]; initial sample 0.22) [%]	HPLC Area (%) of peak 1 (RRT 0.95) ([8]; initial sample 0.42) [%]	HPLC Area (%) of peak 2 (RRT 1.00, main peak) ([8]; initial sample 99.26) [%]	crystalline form stability (XRPD) [7]
[2H]C([2H])([2H])N1CCC(n2cc(-c3cnc(N)c(OCc4cccc(C#CC(C)(C)O)c4)c3)cn2)CC1 [4-(3-(((2-amino-S-(1-(1-trideuteromethylpiperidin-4-yl)-1H-pyrazol-4-yl)pyridin-3-yl)oxy)methyl)phenyl)-2-methylbut-3-yn-2-ol]						conversion in crystalline forms	0.09	0.17	0.41	99.33	tendency of converting into the free base crystalline form A
CN1CCC(n2cc(-c3cnc(N)c(OCc4cccc(C#CC(C)(C)O)c4)c3)cn2)CC1 [Compound A1, reference compound]	2.44	1.13	0.36	43.84	0.17						
